Like-named read-outs stand apart in the source and are kept apart here.
Experiments:
[1] = In vitro toxicity to human cells (cell viability assay); type: cell-based; conditions: human foreskin fibroblasts (HFFs), average ± SD, three independent experiments
Description: HFF cells are selected for cytotoxicity testing in this study, providing a physiologically relevant model for the evaluation of drug interactions with human cells. […] This designation makes them a suitable model for the investigation of cellular processes and their sensitivity to toxic substances, which is crucial for the early identification of potential adverse effects of drugs during the development process.
The IC50 or CC50 values were determined from three independent experiments by plotting the logarithmic concentration of the compound against the percent parasite inhibition or cell growth inhibition, respectively. Nonlinear regression analysis was conducted using GraphPad Prism 10 (GraphPad Software, Inc., La Jolla, CA, USA). Comparisons between groups were evaluated using either one-way or two-way ANOVA followed by Tukey's or Fisher's multiple comparisons tests. A p-value of <0.05 was considered to indicate statistical significance and is denoted by an asterisk or a symbol. The meaning of each symbol is specified in the corresponding figure legend alongside the name of the employed test.

P. falciparum 3D7 = assay: In vitro inhibition of P. falciparum 3D7 (SYBR Green I-based fluorescence assay); type: cell-based, Plasmodium falciparum; set-up: logIC50: unit not given here; conditions: for IC50: Plasmodium falciparum; for logIC50: base-10 log-transformed IC50 against P. falciparum 3D7
Description: (§1) The cultures were maintained in an incubator under specific conditions: 37 °C under 5% CO2 and 5% O2.
(§2) The D-sorbitol method (CAS: 50-70-4, Wako, Osaka, Japan) was employed to synchronize parasites, resulting in the attainment of ≥90% ring-stage parasites. These synchronized parasites were then utilized for the experiments within a 2-h window. The assay was performed as follows. First, 50 μL of synchronized parasites with 0.5% parasitemia and 2% hematocrit were added to individual wells of a 96-well plate. Then, 50 μL of the test compounds was introduced to each well. […] Wells containing only test compounds and erythrocytes were included for background correction. […] After the designated incubation time, 100 μL of lysis buffer containing 0.02% (v/v) SYBR Green I was added to each well, the contents of the well were mixed by pipetting, and the plate was incubated in the dark at room temperature for 2 h. […] This assay was repeated four times at each concentration, and the resulting inhibitory values represent the average from three independent trials.
(§3) The IC50 or CC50 values were determined from three independent experiments by plotting the logarithmic concentration of the compound against the percent parasite inhibition or cell growth inhibition, respectively. Nonlinear regression analysis was conducted using GraphPad Prism 10 (GraphPad Software, Inc., La Jolla, CA, USA). Comparisons between groups were evaluated using either one-way or two-way ANOVA followed by Tukey's or Fisher's multiple comparisons tests. […] The meaning of each symbol is specified in the corresponding figure legend alongside the name of the employed test.

P. falciparum K1 = assay: In vitro inhibition of P. falciparum K1 (SYBR Green I-based fluorescence assay); type: cell-based; conditions: Plasmodium falciparum; multidrug-resistant strain K1; 72 h incubation; average ± SD, three independent experiments; read-out: IC50 P. falciparum K1
Description: as §1, §2, §3

[2] = Table S2, P. falciparum 3D7, value used for SAR analysis, read-out: IC50
[3] = chloroquine-sensitive strain 3D7, 72 h incubation, average ± SD, three independent experiments, read-out: IC50 P. falciparum 3D7
[4] = 3D7, Table S1, average of three independent experiments, read-out: IC50 Mean against P. falciparum 3D7

SMILES | CC50 [1] | IC50 (P. falciparum 3D7; [2]) | IC50 (P. falciparum 3D7; [3]) | logIC50 (P. falciparum 3D7; Table S2) | IC50 (P. falciparum K1) | IC50 (P. falciparum 3D7; [4])
Oc1ccccc1-c1cnc(-c2cccc(O)c2O)o1 [Compound 1, 2-(2′,3′-dihydroxyphenyl)-5-(2″-hydroxyphenyl)oxazole] | 59.6 ± 4.84 µM | 11 µM | 11 ± 2.69 µM | 1.042 | 6.17 ± 3.33 µM | –
COc1ccccc1-c1cnc(-c2cccc(OC)c2OC)o1 [Compound 2] | – | – | – | 2.301 | – | > 200 µM
CC(=O)Oc1ccccc1-c1cnc(-c2cccc(OC(C)=O)c2OC(C)=O)o1 [Compound 3] | 126 ± 31.6 µM | 9.22 µM | 9.22 ± 1.68 µM | 0.9649 | 4.7 ± 2.24 µM | –
Oc1ccc(O)c(-c2ncc(-c3ccccc3O)o2)c1 [Compound 4, 2-(2′,5′-dihydroxyphenyl)-5-(2″-hydroxyphenyl)oxazole] | 55.4 ± 11.7 µM | 6.2 µM | 6.2 ± 4.23 µM | 0.7924 | 3.74 ± 1.47 µM | –
COc1ccc(OC)c(-c2ncc(-c3ccccc3OC)o2)c1 [Compound 5] | – | – | – | 2.301 | – | > 200 µM
CC(=O)Oc1ccc(OC(C)=O)c(-c2ncc(-c3ccccc3OC(C)=O)o2)c1 [Compound 6] | – | 13.4 µM | – | 1.127 | – | 13.4 µM
Oc1ccc(O)c(-c2cnc(-c3ccccc3)o2)c1 [Compound 7, 2-phenyl-5-(2″,5″-hydroxyphenyl)oxazole] | 54.1 ± 11 µM | 3.85 µM | 3.85 ± 1.87 µM | 0.5852 | 1.65 ± 0.72 µM | –
COc1ccc(OC)c(-c2cnc(-c3ccccc3)o2)c1 [Compound 8] | – | – | – | 2.301 | – | > 200 µM
CC(=O)Oc1ccc(OC(C)=O)c(-c2cnc(-c3ccccc3)o2)c1 [Compound 9] | 56.7 ± 18.4 µM | 3.38 µM | 3.38 ± 1.46 µM | 0.5284 | 1.27 ± 0.51 µM | –
Oc1ccc(O)c(-c2cnc(-c3cc(O)ccc3O)o2)c1 [Compound 10, 2-(2′,5′-dihydroxyphenyl)-5-(2″,5″-dihydroxyphenyl)oxazole] | 39.5 ± 7.45 µM | 12.6 µM | 12.7 ± 7.63 µM | 1.102 | 4.94 ± 2.15 µM | –
COc1ccc(OC)c(-c2cnc(-c3cc(OC)ccc3OC)o2)c1 [Compound 11] | – | 15 µM | – | 1.177 | – | 15 µM
CC(=O)Oc1ccc(OC(C)=O)c(-c2cnc(-c3cc(OC(C)=O)ccc3OC(C)=O)o2)c1 [Compound 12] | 67.8 ± 1.39 µM | 10.2 µM | 10.2 ± 4.09 µM | 1.01 | 4.7 ± 1.69 µM | –
COc1ccccc1-c1cnc(-c2ccccc2OC)o1 [Compound 13] | – | – | – | 2.301 | – | > 200 µM
COc1cccc(-c2ncc(-c3ccc4ccccc4c3)o2)c1OC [Compound 14] | – | 62.4 µM | – | 1.795 | – | 62.4 µM
COc1cccc(-c2cnc(-c3cccc(OC)c3OC)o2)c1 [Compound 15] | – | 74.8 µM | – | 1.874 | – | 74.8 µM
COc1ccc(-c2cnc(-c3cccc(OC)c3OC)o2)cc1 [Compound 16] | – | – | – | 1.579 | – | 37.9 µM
COc1ccc(OC)c(-c2cnc(-c3cccc(OC)c3OC)o2)c1 [Compound 17] | – | – | – | 2.301 | – | > 200 µM
COc1cccc(-c2ncc(-c3ccc(OC)c(OC)c3OC)o2)c1OC [Compound 18] | – | 51.1 µM | – | 1.708 | – | 51.1 µM
COc1cccc(-c2cnc(-c3cccc(OC)c3)o2)c1 [Compound 19] | – | – | – | 1.665 | – | 46.3 µM
COc1ccc(-c2cnc(-c3ccc(OC)cc3)o2)cc1 [Compound 20] | – | – | – | 2.301 | – | > 200 µM
COc1ccc(-c2ncc(-c3ccccc3OC)o2)c(OC)c1 [Compound 21] | – | 19.3 µM | – | 1.286 | – | 19.3 µM

SMILES | CC50 [1] | IC50 (P. falciparum 3D7; [2]) | IC50 (P. falciparum 3D7; [3]) | logIC50 (P. falciparum 3D7; Table S2) | IC50 (P. falciparum K1) | IC50 (P. falciparum 3D7; [4])
COc1ccccc1-c1cnc(-c2c(OC)cccc2OC)o1 [Compound 22] | – | – | – | 1.426 | – | 26.7 µM
COc1cccc(-c2cnc(-c3cccc(OC)c3OC)o2)c1OC [Compound 23] | – | 12.7 µM | – | 1.104 | – | 12.7 µM
COc1cccc(-c2cnc(-c3ccc(OC)c(OC)c3OC)o2)c1OC [Compound 24] | – | – | – | 1.832 | – | 68 µM
COc1cccc(-c2ncc(-c3ccccc3)o2)c1OC [Compound 25] | – | – | – | 1.476 | – | 29.9 µM
COc1cccc(-c2ncc(-c3ccccc3OC)o2)c1 [Compound 26] | – | – | – | 2.301 | – | > 200 µM
COc1ccc(OC)c(-c2cnc(-c3ccccc3OC)o2)c1 [Compound 27] | – | – | – | 2.027 | – | 106 µM
COc1cccc(-c2ncc(-c3c(OC)cccc3OC)o2)c1OC [Compound 28] | – | – | – | 2.096 | – | 125 µM
COc1ccc(-c2cnc(-c3cccc(OC)c3OC)o2)c(OC)c1 [Compound 29] | – | 24.9 µM | – | 1.397 | – | 24.9 µM
COc1cccc(-c2ncc(-c3ccccc3C)o2)c1OC [Compound 30] | – | – | – | 2.301 | – | > 200 µM
COCOc1ccccc1-c1cnc(-c2cccc(OC)c2OC)o1 [Compound 33] | – | 18.2 µM | – | 1.26 | – | 18.2 µM
CCOc1ccccc1-c1cnc(-c2cccc(OC)c2OC)o1 [Compound 34] | – | – | – | 2.301 | – | > 200 µM
CCCOc1ccccc1-c1cnc(-c2cccc(OC)c2OC)o1 [Compound 35] | – | 27.7 µM | – | 1.442 | – | 27.7 µM
COc1cccc(-c2ncc(-c3ccccc3[N+](=O)[O-])o2)c1OC [Compound 36] | – | 39.6 µM | – | 1.598 | – | 39.6 µM
COc1cccc(-c2ncc(-c3ccccc3N)o2)c1OC [Compound 37] | – | – | – | 1.564 | – | 36.6 µM
COc1cccc(-c2ncc(-c3ccccc3N(C)C)o2)c1OC [Compound 38] | – | 54.2 µM | – | 1.734 | – | 54.2 µM
COc1cccc(-c2ncc(-c3ccccc3NC(C)=O)o2)c1OC [Compound 39] | – | – | – | 2.301 | – | > 200 µM
COc1ccccc1-c1cnc(-c2cccc(OC)c2OC)s1 [Compound 41] | – | – | – | 1.189 | – | 15.5 µM
COc1ccccc1-c1nnc(-c2cccc(OC)c2OC)o1 [Compound 43] | – | 16.9 µM | – | 1.228 | – | 16.9 µM
COc1ccccc1-c1nnc(-c2cccc(OC)c2OC)s1 [Compound 45] | – | – | – | 2.301 | – | > 200 µM
COc1ccccc1-c1coc(-c2cccc(OC)c2OC)n1 [Compound 46] | – | – | – | 1.65 | – | 44.7 µM
